Experimental data published in ChEMBL document CHEMBL1201862, “PubChem BioAssay data set” (2004).
Blank lines part the entries; values can stand above or below the molecule they belong to. Calls of active or inactive are those of the source.

Tests used:
[1] = target: T1, Zinc finger protein mex-5 (Caenorhabditis elegans, UniProt Q9XUB2); experiment: MEX-5/TCR-2 RNA interaction inhibitors, dose response, biochemical, C. elegans, fluorescence polarization (AID 1960)
T1 sequence (Q9XUB2 whole entry): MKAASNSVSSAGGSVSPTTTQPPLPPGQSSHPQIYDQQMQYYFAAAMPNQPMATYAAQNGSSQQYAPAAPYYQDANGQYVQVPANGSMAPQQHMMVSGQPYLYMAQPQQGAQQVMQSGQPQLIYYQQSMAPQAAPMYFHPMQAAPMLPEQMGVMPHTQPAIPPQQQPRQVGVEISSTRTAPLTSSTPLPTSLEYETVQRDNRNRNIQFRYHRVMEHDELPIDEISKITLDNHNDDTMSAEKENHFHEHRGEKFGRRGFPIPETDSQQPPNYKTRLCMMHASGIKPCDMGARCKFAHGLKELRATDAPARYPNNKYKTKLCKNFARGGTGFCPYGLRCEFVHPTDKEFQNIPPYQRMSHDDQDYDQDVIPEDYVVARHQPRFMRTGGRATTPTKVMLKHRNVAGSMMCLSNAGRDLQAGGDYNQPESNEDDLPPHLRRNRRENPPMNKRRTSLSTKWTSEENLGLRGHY

[2] = target: T2, Heat shock factor protein 1 (Mus musculus, UniProt P38532); experiment: HSF1 potentiators in luciferase reporter cells, confirmation, cell-based, NIH3T3, luminescence, dose retest (AID 435004); format: functional;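 further: stress induced by proteasome inhibitor MG132 added 30 min after compound; luciferase reporter driven by HSF1 response element in NIH3T3 cells; actives raise luminescence as potentiators of the MG132 stress response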
T2 sequence (P38532 whole entry): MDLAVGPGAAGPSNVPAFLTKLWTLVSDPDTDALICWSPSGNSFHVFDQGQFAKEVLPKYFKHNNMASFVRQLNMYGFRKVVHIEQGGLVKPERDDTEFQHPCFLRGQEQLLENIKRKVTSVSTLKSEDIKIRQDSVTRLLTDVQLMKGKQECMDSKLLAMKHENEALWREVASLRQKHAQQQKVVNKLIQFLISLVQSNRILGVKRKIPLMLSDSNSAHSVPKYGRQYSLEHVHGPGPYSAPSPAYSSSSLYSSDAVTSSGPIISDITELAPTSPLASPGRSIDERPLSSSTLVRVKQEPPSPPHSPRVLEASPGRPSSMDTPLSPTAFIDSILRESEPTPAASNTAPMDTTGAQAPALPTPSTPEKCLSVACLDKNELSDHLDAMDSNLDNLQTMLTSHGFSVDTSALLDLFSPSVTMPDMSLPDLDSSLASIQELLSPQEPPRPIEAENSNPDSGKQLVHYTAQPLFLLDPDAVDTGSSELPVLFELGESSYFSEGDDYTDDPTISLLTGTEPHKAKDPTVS

[3] = target: T3, RNA-binding protein pos-1 (Caenorhabditis elegans, UniProt G5EF15); experiment: inhibitors of POS-1/mex-3 RNA binding, dose response, biochemical, fluorescence polarization (AID 1964);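 further: purified POS-1 fused to maltose binding protein made in E. coli; potency of compounds blocking POS-1 binding to fluorescent RNA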
T3 sequence (G5EF15 whole entry): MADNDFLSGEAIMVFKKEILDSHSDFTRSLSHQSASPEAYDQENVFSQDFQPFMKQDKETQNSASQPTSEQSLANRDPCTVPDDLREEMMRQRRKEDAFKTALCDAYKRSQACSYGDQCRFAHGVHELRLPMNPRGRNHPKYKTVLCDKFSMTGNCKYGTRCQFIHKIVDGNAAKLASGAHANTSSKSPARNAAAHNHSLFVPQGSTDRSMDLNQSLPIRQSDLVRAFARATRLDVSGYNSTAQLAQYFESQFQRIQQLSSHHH

[4] = target: Glucose-6-phosphate 1-dehydrogenase (Homo sapiens, UniProt P11413); experiment: human G6PD enzyme inhibitors, dose response, selectivity assay for P. falciparum G6PD inhibitor project, biochemical, fluorescence (AID 504792); format: functional
[5] = target: Phospholipase A2 (Homo sapiens, UniProt P04054); format: functional;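 further: confirmatory dose-response counterscreen on phospholipase A2, testing hits that came from an ultra-high-throughput screen for ATG4B inhibitors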
[6] = target: T4, Cysteine protease ATG4B (Homo sapiens, UniProt Q9Y4P1); format: functional;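 further: Fluorescence-based dose-response confirmation assay measuring inhibition of ATG4B activity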
T4 sequence (Q9Y4P1 whole entry): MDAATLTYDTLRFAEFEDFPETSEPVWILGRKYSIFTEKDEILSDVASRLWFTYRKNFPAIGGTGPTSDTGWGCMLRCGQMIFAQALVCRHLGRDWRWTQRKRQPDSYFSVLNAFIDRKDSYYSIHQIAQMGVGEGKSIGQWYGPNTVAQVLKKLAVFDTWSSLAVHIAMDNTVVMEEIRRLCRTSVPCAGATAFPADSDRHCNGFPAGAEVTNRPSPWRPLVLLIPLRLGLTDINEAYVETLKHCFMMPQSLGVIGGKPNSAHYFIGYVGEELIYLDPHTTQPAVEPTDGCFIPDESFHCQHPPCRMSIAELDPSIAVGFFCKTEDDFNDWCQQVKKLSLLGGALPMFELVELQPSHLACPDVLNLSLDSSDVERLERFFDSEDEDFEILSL

[7] = control 3'UTR Renilla luciferase suppression, dose response, counter-screen for Shn3 inhibitor project, cell-based, Clone20-Shn3RL, cherry-picked (AID 624133); format: functional
[8] = insulin promoter down-regulators in MIN6 cells, imaging, high-content screening, mouse beta cells (AID 1628); format: functional
[9] = cytotoxicity in MIN6 insulinoma cells, dose response, cytotoxicity control, cell-based, mouse insulinoma (AID 2122); format: functional;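 further: confirmatory high-throughput counterscreen run to flag cytotoxic compounds; mouse MIN-6 beta cells carrying an insulin promoter eGFP reporter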
[10] = HepG2 cell cytotoxicity, dose response, cytotoxicity control for Shn3 inhibitor project, CellTiter-Glo, cherry-picked (AID 624134); format: functional, cell-based
[11] = Shn3 3'UTR reporter inhibitors, dose response, cell-based, Clone20 osteoblasts, firefly luciferase, cherry-picked (AID 624132); format: functional;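 further: firefly luciferase luminescence from reporter carrying the Shn3 3'UTR in osteoblasts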
[12] = test system: HEK293; experiment: inhibitors of LMP1-driven NF-kB reporter, dose response, cell-based, HEK293, luciferase, cherry-pick (AID 588343); format: functional; details: Homo sapiens
[13] = test system: BJ; experiment: cytotoxicity toward Ras-transformed BJeLR fibroblasts, dose response, cell-based, alamar blue fluorescence, cherrypicked samples (AID 2631); format: functional; details: Homo sapiens;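 further: confirmatory dose-response assay in RAS-dependent BJ fibroblasts engineered with TERT, LT and ST, with cytotoxicity read by fluorescence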
[14] = test system: BJ; experiment: cytotoxicity toward BJ-TERT-LT-ST fibroblasts, dose response, cell-based, RAS-independent, luminescence (AID 1935); format: functional; details: Homo sapiens;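 further: BJ fibroblasts immortalized with TERT plus LT and ST oncogenes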
[15] = target: T5, Nucleotide-binding oligomerization domain-containing protein 1 (Homo sapiens, UniProt Q9Y239); experiment: NOD1 signaling inhibitors, SAR follow-up, revised (AID 2333); format: functional
T5 sequence (Q9Y239 whole entry): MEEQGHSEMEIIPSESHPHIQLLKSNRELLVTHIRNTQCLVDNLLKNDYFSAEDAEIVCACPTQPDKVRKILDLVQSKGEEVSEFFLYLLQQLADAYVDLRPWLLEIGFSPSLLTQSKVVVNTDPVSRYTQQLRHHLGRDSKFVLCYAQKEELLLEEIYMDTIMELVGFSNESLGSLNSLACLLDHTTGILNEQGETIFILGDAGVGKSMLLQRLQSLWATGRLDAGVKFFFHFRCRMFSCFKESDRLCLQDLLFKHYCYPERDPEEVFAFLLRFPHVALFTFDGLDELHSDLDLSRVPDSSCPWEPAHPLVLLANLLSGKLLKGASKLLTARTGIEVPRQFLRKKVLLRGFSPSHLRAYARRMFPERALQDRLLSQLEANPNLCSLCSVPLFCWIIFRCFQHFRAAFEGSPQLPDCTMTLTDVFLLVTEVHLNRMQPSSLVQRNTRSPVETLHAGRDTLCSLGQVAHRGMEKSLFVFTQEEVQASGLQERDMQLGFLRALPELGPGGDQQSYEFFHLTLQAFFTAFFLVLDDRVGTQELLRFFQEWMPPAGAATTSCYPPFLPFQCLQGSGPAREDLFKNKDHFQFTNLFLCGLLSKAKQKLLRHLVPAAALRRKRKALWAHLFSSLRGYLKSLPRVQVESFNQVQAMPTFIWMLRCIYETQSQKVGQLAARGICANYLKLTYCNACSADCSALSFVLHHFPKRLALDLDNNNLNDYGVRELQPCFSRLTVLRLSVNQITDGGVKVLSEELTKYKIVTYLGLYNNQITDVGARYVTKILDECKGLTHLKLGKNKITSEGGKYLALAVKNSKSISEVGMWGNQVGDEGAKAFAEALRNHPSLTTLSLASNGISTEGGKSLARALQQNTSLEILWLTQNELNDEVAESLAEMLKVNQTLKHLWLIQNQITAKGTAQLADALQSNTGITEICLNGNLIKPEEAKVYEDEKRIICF

[16] = target: Tumor necrosis factor (Homo sapiens, UniProt P01375); experiment: TNFa-triggered NF-kB activation inhibitors, SAR follow-up, cell-based, revised (AID 2337); format: functional
[17] = test system: HEK293; experiment: cells; format: functional, cell-based; details: Homo sapiens
[18] = test system: HEK293; experiment: NOD1 signaling inhibitors, primary screen, cell-based, luminescence, uHTS (AID 1578); format: functional; details: Homo sapiens
[19] = test system: HEK293; experiment: cells; details: Homo sapiens
[20] = test system: HEK293; experiment: cells; format: functional, cell-based; details: Homo sapiens; remark: listed apart in the source
[21] = test system: BJ; experiment: cytotoxicity toward BJ-TERT fibroblasts, dose response, cell-based, RAS-independent, luminescence (AID 1933); format: functional; details: Homo sapiens
[22] = test system: HEK293; experiment: NOD2 signaling inhibitors in MDP-stimulated cells, cell-based, uHTS, luminescence (AID 2001); format: functional; details: Homo sapiens
[23] = test system: BJ; experiment: cells; format: functional, cell-based; details: Homo sapiens
[24] = target: Prothrombin (Homo sapiens, UniProt P00734); experiment: Thrombin 1536 HTS Dose Response Confirmation. [Related pubchem assays: 1046 (Thrombin 1536 HTS; hits were confirmed in this assay)]; format: functional
[25] = cytotoxicity toward DRD oncogenic fibroblasts, dose response, cell-based, non-viral oncogenic, luminescence (AID 1934); format: functional; details: Homo sapiens
[26] = test system: HEK293; experiment: cells; format: functional, cell-based; details: Homo sapiens; remark: listed apart in the source
[27] = target: Nucleotide-binding oligomerization domain-containing protein 2 (Homo sapiens, UniProt Q9HC29); experiment: NOD2 signaling inhibitors, cell-based, luminescence, uHTS, HEK293 (AID 1566); format: functional
Chain of Nucleotide-binding oligomerization domain-containing protein 2 (Q9HC29 whole entry, the tested form may be a part): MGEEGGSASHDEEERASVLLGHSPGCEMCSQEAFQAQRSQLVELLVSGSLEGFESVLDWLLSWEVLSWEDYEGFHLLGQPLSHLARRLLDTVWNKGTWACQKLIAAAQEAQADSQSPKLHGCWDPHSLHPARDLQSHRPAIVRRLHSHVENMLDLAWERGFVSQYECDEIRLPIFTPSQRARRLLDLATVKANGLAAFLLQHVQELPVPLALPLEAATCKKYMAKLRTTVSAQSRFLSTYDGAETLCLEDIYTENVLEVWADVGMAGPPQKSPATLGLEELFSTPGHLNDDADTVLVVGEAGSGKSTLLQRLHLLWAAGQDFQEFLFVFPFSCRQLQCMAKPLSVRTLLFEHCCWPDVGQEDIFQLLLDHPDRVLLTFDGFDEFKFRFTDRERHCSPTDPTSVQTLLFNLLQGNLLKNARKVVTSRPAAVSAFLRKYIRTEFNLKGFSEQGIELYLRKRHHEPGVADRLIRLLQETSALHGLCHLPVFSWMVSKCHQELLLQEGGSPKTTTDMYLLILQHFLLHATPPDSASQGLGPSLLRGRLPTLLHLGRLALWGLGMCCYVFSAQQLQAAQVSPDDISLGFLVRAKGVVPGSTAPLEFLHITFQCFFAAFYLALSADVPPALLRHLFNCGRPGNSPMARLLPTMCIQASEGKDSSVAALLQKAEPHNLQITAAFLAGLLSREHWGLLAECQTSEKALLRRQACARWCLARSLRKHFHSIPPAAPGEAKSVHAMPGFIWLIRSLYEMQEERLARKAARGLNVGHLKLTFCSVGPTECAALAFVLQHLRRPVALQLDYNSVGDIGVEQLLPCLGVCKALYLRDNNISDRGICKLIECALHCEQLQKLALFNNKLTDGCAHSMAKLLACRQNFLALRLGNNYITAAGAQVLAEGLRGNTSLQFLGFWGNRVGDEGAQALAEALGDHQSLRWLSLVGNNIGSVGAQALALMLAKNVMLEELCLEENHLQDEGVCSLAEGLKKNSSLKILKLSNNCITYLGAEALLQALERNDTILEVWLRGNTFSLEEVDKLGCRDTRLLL

Chain of Tumor necrosis factor (P01375 whole entry): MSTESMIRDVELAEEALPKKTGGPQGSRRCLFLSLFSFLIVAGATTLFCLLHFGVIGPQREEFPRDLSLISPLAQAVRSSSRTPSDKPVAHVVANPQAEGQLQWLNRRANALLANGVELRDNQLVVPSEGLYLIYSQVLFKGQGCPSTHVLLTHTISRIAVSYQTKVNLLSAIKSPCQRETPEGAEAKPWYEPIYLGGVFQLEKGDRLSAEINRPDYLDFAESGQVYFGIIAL
Chain of Phospholipase A2 (P04054 whole entry): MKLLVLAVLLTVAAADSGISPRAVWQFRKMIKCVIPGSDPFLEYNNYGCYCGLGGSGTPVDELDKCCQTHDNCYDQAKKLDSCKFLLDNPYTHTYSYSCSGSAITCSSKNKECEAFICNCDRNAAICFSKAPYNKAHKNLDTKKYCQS
Chain of Glucose-6-phosphate 1-dehydrogenase (P11413 whole entry): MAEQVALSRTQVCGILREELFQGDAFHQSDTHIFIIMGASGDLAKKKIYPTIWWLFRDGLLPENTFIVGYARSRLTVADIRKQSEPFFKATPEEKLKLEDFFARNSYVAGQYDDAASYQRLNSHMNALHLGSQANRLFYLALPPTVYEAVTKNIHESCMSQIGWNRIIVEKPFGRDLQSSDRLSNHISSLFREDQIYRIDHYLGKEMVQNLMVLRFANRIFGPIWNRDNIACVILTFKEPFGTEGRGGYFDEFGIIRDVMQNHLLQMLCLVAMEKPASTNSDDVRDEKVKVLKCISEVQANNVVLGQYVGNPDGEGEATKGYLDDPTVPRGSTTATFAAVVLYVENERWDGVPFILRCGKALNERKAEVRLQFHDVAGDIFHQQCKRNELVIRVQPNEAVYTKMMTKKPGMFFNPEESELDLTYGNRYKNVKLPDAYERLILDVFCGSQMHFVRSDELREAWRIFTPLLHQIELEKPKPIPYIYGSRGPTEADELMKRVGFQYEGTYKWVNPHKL

EC50 [1]: 20.6 µM (inconclusive)
EC50 [2]: 20 µM (active)
EC50 [3]: > 300 µM (not active)
IC50 [4]: > 80 µM (inactive)
Structure (SMILES): Oc1ccc(C2C[C@H]3CC[C@@H]2C3)cc1O (stereo not given in full)

IC50 [5]: 11.4 µM (active)
IC50 [6]: 5.43 µM (active)
Structure (SMILES): COC(=O)CSc1nc2cc(Cl)ccc2c(=O)n1C1CCCC1

Structure (SMILES): O=C(CN(C(=O)c1ccc(Cl)cc1)C1CCCCC1)Nc1ccc(Cl)c([N+](=O)[O-])c1
AC50 [7]: 20.6 µM (active)
IC50 [8]: 3.45 µM (active)
IC50 [9]: 1.85 µM (active)
AC50 [10]: 52.6 µM (active)
AC50 [11]: 8.11 µM (active)

Structure (SMILES): Cc1cccc(NC(=S)N=Nc2c(O)n(C)c3ccc(S(=O)(=O)N4CCOCC4)cc23)c1
AC50 [12]: 0.985 µM (active)
IC50 [8]: 6.3 µM (active)
IC50 [9]: 5.04 µM (active)

Structure (SMILES): Cc1cccc(Nc2nc(N)nc(CCl)n2)c1
EC50 [13]: 24.4 µM (active)
EC50 [14]: > 75 µM (inconclusive)
IC50 [15]: 4.54 µM (active)
IC50 [16]: > 20 µM (inactive)
IC50 [17]: > 20 µM (inactive)
EC50 [18]: 8.71 µM (active)
IC50 [19]: > 20 µM (inactive)
IC50 [20]: 9.2 µM (active)
EC50 [21]: 6.83 µM (inconclusive)
IC50 [22]: 10.2 µM (inactive)
EC50 [23]: 7.74 µM (active)
IC50 [24]: > 50 µM (not active)
EC50 [25]: 3.92 µM (active)

Structure (SMILES): Cc1ccccc1C(=O)N1CCN(c2ccc(NC(=O)c3ccc4c(c3)OCCO4)cc2)CC1
IC50 [15]: 3.69 µM (active)
IC50 [16]: 4.73 µM (active)
IC50 [17]: 9.82 µM (active)
EC50 [18]: 4.61 µM (active)
IC50 [19]: > 20 µM (inactive)
IC50 [20]: 4.55 µM (active)
IC50 [26]: > 20 µM (inactive)
EC50 [27]: 10.2 µM (active)
IC50 [22]: 3.6 µM (active)
AC50 [10]: 4.24 µM (active)
AC50 [11]: 2.17 µM (active)

IC50 [5]: 12.3 µM (active)
IC50 [6]: 18.7 µM (active)
Structure (SMILES): O=C(CNCCc1ccc(Cl)cc1Cl)NCc1ccco1
